Here are results for 13 compounds from PubChem BioAssay (NCI).

Holding throughout (test): NCI-60 cell line screen, 48 h
Test [1] deals with DLD-1 colon.
Test [2] deals with M19-MEL melanoma.
Test [3] deals with KM20L2 colon.
Test [4] concerns LXFL 529 NSCLC.
The test system of test [5] is SNB-78 CNS.
The test system of test [6] is DMS 273 small cell lung.
The subject of test [7] is HOP-18 NSCLC.
Test [8] deals with XF 498 CNS.
Test [9] deals with RXF-631 renal.

Structures are written as SMILES.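 Protocol summary: plate cells (96-well), add compound at 5 concentrations, incubate 48 h, interpolate endpoints linearly. TGI: concentration producing complete growth inhibition.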

In the case of `CC(=O)C(CN(C)Cc1ccccc1)C(c1ccccc1)c1c(O)c2ccccc2oc1=O` (configuration not stated), the TGI in test [1], in test [2], in test [3], in test [4], in [5] and in test [6] was over 100 µM throughout.
With `O=S(=O)(c1ccccc1)n1cnc(CCc2ccccc2)n1`, the TGI in [1], in [2], in [7], in test [3], in [4] and in test [5] was over 100 µM throughout. In test [6], the TGI is over 100 µM.
With `COc1ccccc1NC(=O)CC(=O)n1nc(-c2ccccc2)c(N=Nc2ccccc2[N+](=O)[O-])c1-c1ccccc1`, the TGI in test [1], in test [2], in test [8], in test [7], in test [9] and in test [3] was over 100 µM in each case. Further, the TGI in [4], in test [5] and in test [6] was over 100 µM each time.
Regarding `O=C(Cc1nc2ccc(C(=O)c3ccccc3)cc2[nH]c1=O)C(=O)Nc1ccc(C(F)(F)F)cc1[N+](=O)[O-]`, the TGI in [1], in test [2], in test [8], in test [7], in [9] and in test [3] was over 100 µM each time. Moreover, the TGI in [4], in test [5] and in test [6] was over 100 µM throughout.
For the compound `C[N+](C)(C)CC(=O)N/N=C/c1oc(-c2cccc([N+](=O)[O-])c2)c(-c2cccc([N+](=O)[O-])c2)c1[N+](=O)[O-]`, the TGI in test [1], in test [2], in test [9] and in test [3] was over 100 µM each time.
As to `CC1(Br)S(=O)(=O)OCCOS1(=O)=O`, the TGI in test [1], in test [2], in test [8], in test [3], in [4] and in test [5] was over 100 µM throughout. Further, in test [6], the TGI was over 100 µM.
For the compound `C=CC(Br)(CBr)CCC(Br)C(C)(C)Br` (configuration not stated), the TGI came to 33.4 µM in test [1]; 27.4 µM in [2]; 28.9 µM in test [7]; 27.7 µM in test [4]; 19.6 µM in [5]; 22.5 µM in [6].
For `OC1=CN=C(C2CC2)Oc2ccccc21`, the TGI in test [1], in [2], in [3], in test [4], in [5] and in test [6] was over 100 µM each time.
On to `Cc1ccc(S(=O)(=O)C(C#N)c2nc3ccccc3nc2N2CCOCC2)cc1` (configuration not stated), for which the TGI was 93.1 µM in test [1]; 81.6 µM in test [2]; 81.7 µM in [8]; over 100 µM in test [3]; over 100 µM in test [4]; 15.9 µM in test [5]. This compound also yielded a TGI in [6] of 49.4 µM.
Turning to `COC(=O)NN/C=C(\C=Nc1ccccc1)[N+](=O)[O-]`, the TGI in test [1], in test [2], in test [8], in test [7], in test [9] and in [3] was over 100 µM throughout. For the same compound, the TGI in test [4] and in [6] was over 100 µM in each case.
Turning to `Cc1ccc([S+](c2ccccc2)c2cc(C)ccc2C)cc1` (configuration not stated), the TGI in test [1] is 19.1 µM; in test [2] it was over 100 µM; in [7] it was 26.4 µM; in test [6], 15.3 µM.
With `C=C(C)C1Cc2c(cc(OC)c3c(=O)c4ccccc4n(C)c23)O1` (configuration not stated), the TGI in [1], in [2], in test [8], in test [7], in test [3] and in [4] was over 100 µM throughout. Moreover, the TGI in [5] and in [6] was over 100 µM throughout.
Take `CCOC(=O)c1ncn2c1[nH]c(=O)c1ccccc12`: the TGI in [2], in [8], in [3], in test [4], in test [5] and in test [6] was over 100 µM each time.
